Six molecules from ChEMBL document CHEMBL1125962, “A new class of leukotriene biosynthesis inhibitors: The development of ((4-(4-chlorophenyl)-1-(4-(2-quinolinylmethoxy)phenyl)butyl)thio)acetic acid, L-674,636” (Bioorg Med Chem Lett, 1991) can be followed below.

Data set [1] can be described thus: Inhibition of leukotriene synthesis was assessed from inhibitory activity against human PMN. Type of data set: functional.
The nature of data set [2]: Compound was tested for bioavailability in squirrel monkey. The format is ADME, organism-based, Saimiri sciureus. The conditions noted are these: in vivo.
Data set [3] can be described thus: Compound was tested for bioavailability in rats. As to conditions: rat, in vivo. The format is ADME, organism-based.
Data set [4] is filed under the species Rattus norvegicus. Put plainly: The effective dose was measured by using rat pleurisy assay. The format is functional.
For data set [5], the species on record is Rattus norvegicus. Briefly: The effective dose was measured in antigen-induced dyspnea in inbred hyperreactive rats. The format is functional.
Data set [6] can be described thus: Percentage blockade of ascaris-induced bronchoconstriction by the compound was determined at a dose of 1 mg/kg in conscious squirrel monkey. The format is functional.

Turning to `CCCCCC(O)c1ccc(OCc2ccc3ccccc3n2)cc1` (stereo unspecified), half-maximal inhibition in data set [1] (IC50) required 90 nM.
Consider `OC(CCCc1ccccc1)c1ccc(OCc2ccc3ccccc3n2)cc1` (stereo unspecified), for which the IC50 in data set [1] turned out to be 30 nM.
Same read-out and setting: as for `O=C(O)CSC(CCCc1ccccc1)c1ccc(OCc2ccc3ccccc3n2)cc1` (stereo unspecified) [AZD-4769], the figure is 3 nM; as for `CCCCCC(O)c1cccc(OCc2ccc3ccccc3n2)c1` (stereo unspecified) [REV-5901], 1800 nM; as for `O=C(O)CO/N=C(\CCCc1ccccc1)c1ccc(OCc2ccc3ccccc3n2)cc1`, 80 nM.
For the molecule `O=C(O)CSC(CCCc1ccc(Cl)cc1)c1ccc(OCc2ccc3ccccc3n2)cc1` (stereo unspecified), the values for the bioavailability in data set [2] and in data set [3] were 93% and 100%, respectively. The molecule also came in with a 50% inhibitory concentration (IC50) in data set [1] of 7 nM. For the same molecule, the 50% effective dose (ED50) was 1.6 mg/kg in data set [4] and 0.035 mg/kg in data set [5]. Besides, the Blockade in data set [6] is 80%.
